Test results reported in US20180256557A1, “PHARMACEUTICAL COMBINATION COMPRISING (A) THE ALPHA-ISOFORM SPECIFIC PI3K INHIBITOR ALPELISIB (BYL719) AND (B) AN AKT INHIBITOR, PREFERABLY MK-2206, AFURESERTIB OR UPROSERTIB, AND THE USE THEREOF IN THE TREATMENT/PREVENTION OF CANCER” (priority 2015, published 2018).

Columns and labels:
Assay type in all cases: cell-based
[1] = test system: CL-11 colorectal cancer cell line; assay: Cell proliferation, cell count by microscopy; conditions: single agent; CL-11 (KRAS); 96 h treatment
Method: (§1) COMPOUNDS A and B were dissolved in 100% DMSO (Sigma, Catalog number D2650) at concentrations of 20 mM and stored at −20° C. until use. Compounds were arrayed in drug master plates (Greiner, Catalog number 788876) and serially diluted 3-fold (7 steps) at 2000× concentration.
(§2) Colorectal cancer cell lines used for this study were obtained, cultured and processed from commercial vendors ATCC, CellBank Australia, DSMZ, ECACC, HSRRB, and RIKEN (Table 1). All cell line media were supplemented with 10% FBS (HyClone, Catalog number SH30071.03). Media for LIM2405 and LIM2551 was additionally supplemented with 0.6 μg/mL Insulin (SIGMA, Catalog number 19278), 1 μg/mL Hydrocortisone (SIGMA, Catalog number H0135), and 10 μM 1-Thioglycerol (SIGMA, Catalog number M6145).
(§3) Cell lines were cultured in 37° C. and 5% CO2 incubator and expanded in T-75 flasks. In all cases cells were thawed from frozen stocks, expanded through ≥1 passage using 1:3 dilutions, counted and assessed for viability using a ViCell counter (Beckman-Coulter) prior to plating. To split and expand cell lines, cells were dislodged from flasks using 0.25% Trypsin-EDTA (GIBCO, Catalog number 25200). All cell lines were determined to be free of mycoplasma contamination as determined by a PCR detection methodology performed at Idexx Radil (Columbia, Mo., USA) and correctly identified by detection of a panel of SNPs.
(§4) To test the effect of the combination of COMPOUND A and COMPOUND B on cell proliferation cells were plated in black 384-well microplates with clear bottom (Matrix/Thermo Scientific, Catalog number 4332) in 50 μL media per well at cell densities between 500 and 1250 cells/well (Table 1) and allowed to incubate at 37 degrees, 5% CO2 for 24 h. After 24 h one 384-well plate per cell line was prepared for cell counting by microscopy (see below) without receiving treatment (=‘baseline’). The other cell plates were treated by transferring 25 nL of the 2000× compound from drug master plates using an ATS acoustic liquid dispenser (ECD Biosystems) and resulting in a final 1× concentration. COMPOUND A was used over a final concentration range of 13 nM-10 μM, and COMPOUND B was used over a final concentration range of 13 nM-10 μM (7 1:3 dilution steps). For the combination of COMPOUND A with COMPOUND B the single agents were combined at a fixed ratio of 1:1 at each dilution resulting in 7 combination treatments. […] After compound addition 50 nL of 2 mM CellEvent Caspase-3/7 Green Detection Reagent (ThermoFisher, Catalog number C10423) were added to one of the three replicates using the HP D300 Digital Dispenser (Tecan). Caspase 3/7 induction was measured as a proxy for apoptosis induced by the treatments. Cells were treated for 72 h to 96 h depending on their doubling time (Table 1), and Caspase 3/7 activation was measured every 24 h by microscopy using an InCell Analyzer 2000 (GE Healthcare) equipped with a 4× objective and FITC excitation/emission filters. At the end of the treatment cells were prepared for cell counting by microscopy. Cells were fixed and permeabilised for 45 minutes in 4% PFA (Electron Microscopy Sciences, Catalog number 15714), 0.12% TX-100 (Electron Microscopy Sciences, Catalog number 22140) in PBS (Boston Bioproducts, Catalog number BM-220). After washing cells three times with PBS their DNA was stained for 30 minutes with Hoechst 33342 (ThermoFisher, Catalog number H3570) at a final concentration of 4 μg/ml. Cells were washed three times with PBS and then plates were heat-sealed using a PlateLoc (Agilent Technologies) with aluminum seals (Agilent Technologies, Catalog number 06644-001) and stored at 4° C. until imaging. All cells per well/treatment were captured in a single image by fluorescence microscopy using an InCell Analyzer 2000 (GE Healthcare) equipped with a 4× objective and DAPI excitation/emission filters. […]

[2] = test system: COLO-205 colorectal cancer cell line; assay: Cell proliferation, cell count by microscopy; conditions: Homo sapiens; single agent; COLO-205 (BRAF); 72 h treatment
Method: as §1, §2, §3, §4

[3] = test system: COLO-320 colorectal cancer cell line; assay: Cell proliferation, cell count by microscopy; conditions: Homo sapiens; single agent; COLO-320 (no driver mutation listed); 72 h treatment
Method: as §1, §2, §3, §4

[4] = test system: COLO-678 colorectal cancer cell line; assay: Cell proliferation, cell count by microscopy; conditions: Homo sapiens; single agent; COLO-678 (KRAS); 96 h treatment
Method: as §1, §2, §3, §4

[5] = test system: CW-2 colorectal cancer cell line; assay: Cell proliferation, cell count by microscopy; conditions: single agent; CW-2 (no driver mutation listed); 96 h treatment
Method: as §1, §2, §3, §4

[6] = test system: DLD-1 colorectal cancer cell line; assay: Cell proliferation, cell count by microscopy; conditions: Homo sapiens; single agent; DLD-1 (KRAS, PIK3CA); 72 h treatment
Method: as §1, §2, §3, §4

[7] = test system: GP2d colorectal cancer cell line; assay: Cell proliferation, cell count by microscopy; conditions: single agent; GP2d (KRAS, PIK3CA); 72 h treatment
Method: as §1, §2, §3, §4

[8] = test system: HCT-116 colorectal cancer cell line; assay: Cell proliferation, cell count by microscopy; conditions: Homo sapiens; single agent; HCT-116 (KRAS, PIK3CA); 72 h treatment
Method: as §1, §2, §3, §4

[9] = test system: HT-29 colorectal cancer cell line; assay: Cell proliferation, cell count by microscopy; conditions: Homo sapiens; single agent; HT-29 (BRAF, PIK3CA); 72 h treatment
Method: as §1, §2, §3, §4

[10] = test system: HT55 colorectal cancer cell line; assay: Cell proliferation, cell count by microscopy; conditions: Homo sapiens; single agent; HT55 (no driver mutation listed); 96 h treatment
Method: as §1, §2, §3, §4

[11] = test system: LIM2405 colorectal cancer cell line; assay: Cell proliferation, cell count by microscopy; conditions: single agent; LIM2405 (BRAF); 72 h treatment
Method: as §1, §2, §3, §4

[12] = test system: LIM2551 colorectal cancer cell line; assay: Cell proliferation, cell count by microscopy; conditions: single agent; LIM2551 (BRAF, PIK3CA); 72 h treatment
Method: as §1, §2, §3, §4

[13] = test system: LS-180 colorectal cancer cell line; assay: Cell proliferation, cell count by microscopy; conditions: Homo sapiens, LS180; single agent; LS-180 (KRAS, PIK3CA); 72 h treatment
Method: as §1, §2, §3, §4

[14] = test system: LS411N colorectal cancer cell line; assay: Cell proliferation, cell count by microscopy; conditions: Homo sapiens, LS-411N; single agent; LS411N (BRAF); 72 h treatment
Method: as §1, §2, §3, §4

[15] = test system: LoVo colorectal cancer cell line; assay: Cell proliferation, cell count by microscopy; conditions: Homo sapiens; single agent; LoVo (KRAS); 96 h treatment
Method: as §1, §2, §3, §4

[16] = test system: NCI-H508 colorectal cancer cell line; assay: Cell proliferation, cell count by microscopy; conditions: Homo sapiens; single agent; NCI-H508 (PIK3CA); 72 h treatment
Method: as §1, §2, §3, §4

[17] = test system: OUMS-23 colorectal cancer cell line; assay: Cell proliferation, cell count by microscopy; conditions: single agent; OUMS-23 (BRAF); 72 h treatment
Method: as §1, §2, §3, §4

[18] = test system: RKO colorectal cancer cell line; assay: Cell proliferation, cell count by microscopy; conditions: single agent; RKO (BRAF, PIK3CA); 72 h treatment
Method: as §1, §2, §3, §4

[19] = test system: SNU-C2A colorectal cancer cell line; assay: Cell proliferation, cell count by microscopy; conditions: single agent; SNU-C2A (KRAS); 96 h treatment
Method: as §1, §2, §3, §4

[20] = test system: SW48 colorectal cancer cell line; assay: Cell proliferation, cell count by microscopy; conditions: Homo sapiens; single agent; SW48 (MEK1); 96 h treatment
Method: as §1, §2, §3, §4

[21] = test system: SW480 colorectal cancer cell line; assay: Cell proliferation, cell count by microscopy; conditions: Homo sapiens; single agent; SW480 (KRAS); 72 h treatment
Method: as §1, §2, §3, §4

[22] = test system: SW620 colorectal cancer cell line; assay: Cell proliferation, cell count by microscopy; conditions: Homo sapiens, SW-620; single agent; SW620 (KRAS); 72 h treatment
Method: as §1, §2, §3, §4

[23] = test system: SW837 colorectal cancer cell line; assay: Cell proliferation, cell count by microscopy; conditions: Homo sapiens; single agent; SW837 (KRAS); 72 h treatment
Method: as §1, §2, §3, §4

[24] = test system: 23 colorectal cancer cell lines; assay: Cell proliferation over the panel of cell lines; conditions: single agent; for IC50 values over the cell line panel: summary in words of FIG. 1 and Table 2
Method: as §1, §2, §3
To test the effect of the combination of COMPOUND A and COMPOUND B on cell proliferation cells were plated in black 384-well microplates with clear bottom (Matrix/Thermo Scientific, Catalog number 4332) in 50 μL media per well at cell densities between 500 and 1250 cells/well (Table 1) and allowed to incubate at 37 degrees, 5% CO2 for 24 h. […] Caspase 3/7 induction was measured as a proxy for apoptosis induced by the treatments. Cells were treated for 72 h to 96 h depending on their doubling time (Table 1), and Caspase 3/7 activation was measured every 24 h by microscopy using an InCell Analyzer 2000 (GE Healthcare) equipped with a 4× objective and FITC excitation/emission filters. […]

Row | SMILES | IC50 [1] [µM] | IC50 [2] [µM] | IC50 [3] [µM] | IC50 [4] [µM] | IC50 [5] [µM] | IC50 [6] [µM] | IC50 [7] [µM] | IC50 [8] [µM] | IC50 [9] [µM] | IC50 [10] [µM] | IC50 [11] [µM] | IC50 [12] [µM] | IC50 [13] [µM] | IC50 [14] [µM] | IC50 [15] [µM] | IC50 [16] [µM] | IC50 [17] [µM] | IC50 [18] [µM] | IC50 [19] [µM] | IC50 [20] [µM] | further results
1 | Cc1nc(NC(=O)N2CCC[C@H]2C(N)=O)sc1-c1ccnc(C(C)(C)C(F)(F)F)c1 [COMPOUND A, (S)-Pyrrolidine-1,2-dicarboxylic acid 2-amide 1-({4-methyl-5-[2-(2,2,2-trifluoro-1,1-dimethyl-ethyl)-pyridin-4-yl]-thiazol-2-yl}-amide)] | 3.2 | > 10 | 7.3 | > 10 | > 10 | > 10 | 0.3 | 6.9 | 1.9 | 1.1 | > 10 | 1.4 | 7.1 | > 10 | 7.5 | 1.3 | > 10 | 2.6 | > 10 | 3.2 | IC50 [21]: > 10 µM; IC50 [22]: > 10 µM; IC50 [23]: 9.3 µM; growth inhibition of PIK3CA mutant cell lines compared to PIK3CA wild type cell lines ([24]; one-tailed t-test on normalized cell counts (FIG. 3)): significantly stronger; IC50 values over the cell line panel [24]: micromolar
2 | NC1(c2ccc(-c3nc4ccn5c(=O)[nH]nc5c4cc3-c3ccccc3)cc2)CCC1 [COMPOUND B, 8-[4-(1-Aminocyclobutyl)phenyl]-9-phenyl-1,2,4-triazolo[3,4-f][1,6]naphthyridin-3(2H)-one, reference compound] | > 10 | 5.4 | 5.1 | > 10 | 6.4 | > 10 | 0.6 | > 10 | 3.8 | 1 | > 10 | 1.4 | > 10 | 3 | 0.1 | 1.5 | > 10 | 3.9 | > 10 | > 10 | IC50 [21]: > 10 µM; IC50 [22]: > 10 µM; IC50 [23]: > 10 µM; IC50 values over the cell line panel [24]: micromolar
